Results from ChEMBL document CHEMBL3885881, “DrugMatrix”.

Organism: Rattus norvegicus
Experiment: DrugMatrix - Regimen: Daily Repeat
Format: toxicity, organism-based, Sprague-Dawley
Design: regimen Daily Repeat, gender Male, age 6-8 weeks
Settings: in vivo, po, route oral GAVAGE, vehicle 100 % WATER; for ABSOLUTE BASOPHIL / ABSOLUTE EOSINOPHIL / ABSOLUTE LYMPHOCYTE / ABSOLUTE MONOCYTE / ABSOLUTE SEGMENTED NEUTROPHIL / BASOPHIL / EOSINOPHIL / ERYTHROCYTE COUNT / HEMATOCRIT / HEMOGLOBIN / LEUKOCYTE COUNT / LYMPHOCYTE / MEAN CORPUSCULAR HEMOGLOBIN / MEAN CORPUSCULAR HEMOGLOBIN CONCENTRATION / MEAN CORPUSCULAR VOLUME / MONOCYTE / NEUTROPHIL / NUCLEATED RED BLOOD CELLS / PLATELET COUNT: tissue Blood; for ALANINE AMINOTRANSFERASE / ALBUMIN / ALKALINE PHOSPHATASE / ASPARTATE AMINOTRANSFERASE / BLOOD UREA NITROGEN / CARBON DIOXIDE / CHLORIDE / CHOLESTEROL / CREATINE PHOSPHOKINASE / CREATININE / GLUCOSE / LACTATE DEHYDROGENASE / LIPASE / PHOSPHORUS / POTASSIUM / SODIUM / TOTAL BILIRUBIN / TOTAL PROTEIN / URIC ACID: tissue Plasma
[1] = 25 mg/kg, 120 h, dose level High, time 5 day
[2] = […], 72 h, dose 6.3 mg/Kg, dose level Low, time 3 day
[3] = […], 120 h, dose 6.3 mg/Kg, dose level Low, time 5 day

Structure (SMILES): O=P1(N(CCCl)CCCl)NCCCO1 (centres undefined) [CYCLOPHOSPHAMIDE ANHYDROUS]
- ABSOLUTE BASOPHIL [1]: 0 CELLS/uL
- ABSOLUTE EOSINOPHIL [1]: 0 CELLS/uL
- ABSOLUTE LYMPHOCYTE [1]: 1111.67 CELLS/uL
- ABSOLUTE MONOCYTE [1]: 4.33 CELLS/uL
- ABSOLUTE SEGMENTED NEUTROPHIL [1]: 117.33 CELLS/uL
- BASOPHIL [1]: 0%
- EOSINOPHIL [1]: 0%
- ERYTHROCYTE COUNT [1]: 4.84 x10E6/uL
- HEMATOCRIT [1]: 29.43%
- HEMOGLOBIN [1]: 11.47 G/DL
- LEUKOCYTE COUNT [1]: 1.23 x10E3/uL
- LYMPHOCYTE [1]: 90.33%
- MEAN CORPUSCULAR HEMOGLOBIN [1]: 23.77 pg
- MEAN CORPUSCULAR HEMOGLOBIN CONCENTRATION [1]: 39 G/DL
- MEAN CORPUSCULAR VOLUME [1]: 60.93 fL
- MONOCYTE [1]: 0.33%
- NEUTROPHIL [1]: 9.33%
- NUCLEATED RED BLOOD CELLS [1]: 0 /100WBC
- PLATELET COUNT [1]: 645 x10E3/uL
- ALANINE AMINOTRANSFERASE [1]: 44.33 u/L
- ALBUMIN [1]: 3.8 G/DL
- ALKALINE PHOSPHATASE [1]: 227.67 u/L
- ASPARTATE AMINOTRANSFERASE [1]: 67.33 u/L
- BLOOD UREA NITROGEN [1]: 15.33 mg/dL
- CARBON DIOXIDE [1]: 31 mmol/L
- CHLORIDE [1]: 102.33 MEQ/L
- CHOLESTEROL [1]: 78.67 mg/dL
- CREATINE PHOSPHOKINASE [1]: 231 u/L
- CREATININE [1]: 0.16 mg/dL
- GLUCOSE [1]: 147.67 mg/dL
- LACTATE DEHYDROGENASE [1]: 83.33 u/L
- LIPASE [1]: 8.33 u/L
- PHOSPHORUS [1]: 9.97 mg/dL
- POTASSIUM [1]: 5.36 MEQ/L
- SODIUM [1]: 144.37 MEQ/L
- TOTAL BILIRUBIN [1]: 0.1 mg/dL
- TOTAL PROTEIN [1]: 5.37 G/DL
- URIC ACID [1]: 0.33 mg/dL
- ABSOLUTE BASOPHIL [2]: 0 CELLS/uL
- ABSOLUTE EOSINOPHIL [2]: 0 CELLS/uL
- ABSOLUTE LYMPHOCYTE [2]: 7172.67 CELLS/uL
- ABSOLUTE MONOCYTE [2]: 29.33 CELLS/uL
- ABSOLUTE SEGMENTED NEUTROPHIL [2]: 531.33 CELLS/uL
- BASOPHIL [2]: 0%
- EOSINOPHIL [2]: 0%
- ERYTHROCYTE COUNT [2]: 5.43 x10E6/uL
- HEMATOCRIT [2]: 33.63%
- HEMOGLOBIN [2]: 13.3 G/DL
- LEUKOCYTE COUNT [2]: 7.73 x10E3/uL
- LYMPHOCYTE [2]: 92.67%
- MEAN CORPUSCULAR HEMOGLOBIN [2]: 24.53 pg
- MEAN CORPUSCULAR HEMOGLOBIN CONCENTRATION [2]: 39.53 G/DL
- MEAN CORPUSCULAR VOLUME [2]: 62.03 fL
- MONOCYTE [2]: 0.33%
- NEUTROPHIL [2]: 7%
- NUCLEATED RED BLOOD CELLS [2]: 0 /100WBC
- PLATELET COUNT [2]: 1008 x10E3/uL
- ALANINE AMINOTRANSFERASE [2]: 63.67 u/L
- ALBUMIN [2]: 4.1 G/DL
- ALKALINE PHOSPHATASE [2]: 374 u/L
- ASPARTATE AMINOTRANSFERASE [2]: 82.67 u/L
- BLOOD UREA NITROGEN [2]: 14 mg/dL
- CARBON DIOXIDE [2]: 34.33 mmol/L
- CHLORIDE [2]: 99.5 MEQ/L
- CHOLESTEROL [2]: 93.33 mg/dL
- CREATINE PHOSPHOKINASE [2]: 214.67 u/L
- CREATININE [2]: 0.13 mg/dL
- GLUCOSE [2]: 141.67 mg/dL
- LACTATE DEHYDROGENASE [2]: 136 u/L
- LIPASE [2]: 12.67 u/L
- PHOSPHORUS [2]: 11.2 mg/dL
- POTASSIUM [2]: 5.83 MEQ/L
- SODIUM [2]: 145.15 MEQ/L
- TOTAL BILIRUBIN [2]: 0.23 mg/dL
- TOTAL PROTEIN [2]: 5.9 G/DL
- URIC ACID [2]: 0.6 mg/dL
- ABSOLUTE BASOPHIL [3]: 0 CELLS/uL
- ABSOLUTE EOSINOPHIL [3]: 11 CELLS/uL
- ABSOLUTE LYMPHOCYTE [3]: 3359 CELLS/uL
- ABSOLUTE MONOCYTE [3]: 20 CELLS/uL
- ABSOLUTE SEGMENTED NEUTROPHIL [3]: 610 CELLS/uL
- BASOPHIL [3]: 0%
- EOSINOPHIL [3]: 0.33%
- ERYTHROCYTE COUNT [3]: 5.53 x10E6/uL
- HEMATOCRIT [3]: 34.97%
- HEMOGLOBIN [3]: 13.43 G/DL
- LEUKOCYTE COUNT [3]: 4 x10E3/uL
- LYMPHOCYTE [3]: 84%
- MEAN CORPUSCULAR HEMOGLOBIN [3]: 24.37 pg
- MEAN CORPUSCULAR HEMOGLOBIN CONCENTRATION [3]: 38.43 G/DL
- MEAN CORPUSCULAR VOLUME [3]: 63.33 fL
- MONOCYTE [3]: 0.67%
- NEUTROPHIL [3]: 15%
- NUCLEATED RED BLOOD CELLS [3]: 0 /100WBC
- PLATELET COUNT [3]: 1266.67 x10E3/uL
- ALANINE AMINOTRANSFERASE [3]: 56.33 u/L
- ALBUMIN [3]: 4.03 G/DL
- ALKALINE PHOSPHATASE [3]: 346.33 u/L
- ASPARTATE AMINOTRANSFERASE [3]: 83.33 u/L
- BLOOD UREA NITROGEN [3]: 14 mg/dL
- CARBON DIOXIDE [3]: 31.33 mmol/L
- CHLORIDE [3]: 99.5 MEQ/L
- CHOLESTEROL [3]: 65.67 mg/dL
- CREATINE PHOSPHOKINASE [3]: 216.33 u/L
- CREATININE [3]: 0.2 mg/dL
- GLUCOSE [3]: 137.33 mg/dL
- LACTATE DEHYDROGENASE [3]: 136 u/L
- LIPASE [3]: 10.33 u/L
- PHOSPHORUS [3]: 10.6 mg/dL
- POTASSIUM [3]: 5.74 MEQ/L
- SODIUM [3]: 145.9 MEQ/L
- TOTAL BILIRUBIN [3]: 0.17 mg/dL
- TOTAL PROTEIN [3]: 5.9 G/DL
- URIC ACID [3]: 0.53 mg/dL
